In the OligoGym collection one finds target mRNA inhibition data, which are given here for 60 sequences.

Values joined by “and” are separate entries in the source; they are usually repeats but may differ in a detail not shown here. Identical values can stand only once. After the bases stand the sugars from the 5' end (letter, count) and the backbone: PS all phosphorothioate, else s phosphorothioate and o phosphodiester by linkage. Methylation of C is not given here. e = 2'-O-(2-methoxyethyl) (MOE); k = constrained ethyl (cEt); d = 2'-deoxy (DNA)

In this data set the target is APOL1. To be noted: ASO.

In turn, “ACACATCATTGGGTTA (sugars kekddddeekkddddd, PS)” showed a target mRNA inhibition (A431, 2 µM) of 87%.
Still for that read-out and setting: in the case of “CACATCATTGGGTTAT (sugars kkddddkekekkdddd, PS)” it was 34%.
In the case of “AGTTTTGTAAGTGCAA (sugars k3 d4 k3 e1 d5, PS)”, the target mRNA inhibition is, setting by setting: (A431, 0.0156 µM) 15%; (A431, 0.0625 µM) 60%; (A431, 0.25 µM) 87%; (A431, 1 µM) 94%; (A431, 2 µM) 96%.
As for GAAATGAACGCAATGC (sugars k4 d9 k3, PS), the target mRNA inhibition is, setting by setting: (A431, 0.0625 µM) 42%; (A431, 0.25 µM) 71%; (A431, 1 µM) 87%.
For the sequence “ATCAGATGGGTACTTC (sugars kdddddkekekddddd, PS)”, where the note is “A431, 2 µM”, the target mRNA inhibition is 73%.
On to “ATTCTCATGGTACAGG (sugars kkkddddkekeddddd, PS)”, for which the target mRNA inhibition runs as follows: (A431, 0.0156 µM) 15%; (A431, 0.0625 µM) 41%; (A431, 0.25 µM) 73%; (A431, 1 µM) 83%; (A431, 2 µM) 94%.
Turning to “GTTCTAACTCTTGGGC (sugars kddddkekekeddddd, PS)”, for the setting “A431, 2 µM”, the target mRNA inhibition is 77%.
“TTTTGTAAGTGCAACC (sugars k2 d4 e3 k2 d5, PS)” came in with a target mRNA inhibition (A431, 2 µM) of 99%.
“TTTGTAAGTGCAACCA (sugars kddddkekekeddddd, PS)” gave a target mRNA inhibition (A431, 2 µM) of 95%.
With “TTGTAAGTGCAACCAA (sugars kkkddddkekekdddd, PS)”, the target mRNA inhibition (A431, 2 µM) is 35%.
Sequence “AACACATCATTGGGTT (sugars k3 d4 k3 e1 d5, PS)” returned a target mRNA inhibition (A431, 2 µM) of 58%.
Same read-out and setting: in the case of “TCTATTAGAGGGCTAG (sugars k3 d4 k3 e1 d5, PS)” it was 51%.
For the sequence “GTATTTCTTGATGTGG (sugars k3 d5 k3 d5, PS)”, the target mRNA inhibition by setting is: (A431, 0.25 µM) 95% and 98% and 99%; (A431, 1 µM) 97% and 99% and 100%; (A431, 2 µM) 99% and 100%.
Turning to TCATTAGTGCTATAGA (sugars k4 d9 k3, PS), the target mRNA inhibition came out at 25% (A431, 0.0625 µM); 71% (A431, 0.25 µM); 86% (A431, 1 µM).
TCCGTCAATATATTCT (sugars k3 d10 k3, PS): the target mRNA inhibition by setting is: (A431, 0.0625 µM) 83%; (A431, 0.25 µM) 96%; (A431, 1 µM) 98%.
Consider “GTTATATTTGATCCTC (sugars kdddddkekekddddd, PS)”, for which the target mRNA inhibition is, setting by setting: (A431, 0.0156 µM) 26%; (A431, 0.0625 µM) 56%; (A431, 0.25 µM) 78%; (A431, 1 µM) 92%; (A431, 2 µM) 95%.
The sequence GATTCTGTGTGCTCAC (sugars k4 d9 k3, PS) gave a target mRNA inhibition (A431, 0.0625 µM) of 46%; a target mRNA inhibition (A431, 0.25 µM) of 72%; a target mRNA inhibition (A431, 1 µM) of 87%.
As for “TTTGTAAGTGCAACCA (sugars kkdddddkekeddddd, PS)”, the target mRNA inhibition is, setting by setting: (A431, 0.0156 µM) 36%; (A431, 0.0625 µM) 46%; (A431, 0.25 µM) 78%; (A431, 1 µM) 91%; (A431, 2 µM) 92%.
In the case of GTTTACTTACCGGGTA (sugars k4 d9 k3, PS), the target mRNA inhibition (A431, 0.0625 µM) was 47% and 38%; the target mRNA inhibition (A431, 1 µM) was 84% and 63%.
“TTTATACCAGTGTCTT (sugars k2 d4 e3 k2 d5, PS)”: for the setting “A431, 2 µM”, the target mRNA inhibition came to 88%.
Under “A431, 2 µM”, “ACACATCATTGGGTTA (sugars kkddddekekeddddd, PS)” displayed a target mRNA inhibition of 64%.
Same read-out and setting: in the case of “CGTGTTATATTTGATC (sugars kkddddekekeddddd, PS)” it was 76%.
Consider TACTTCTGTTAGATAC (sugars k4 d9 k3, PS), for which the target mRNA inhibition is, setting by setting: (A431, 0.0625 µM) 47%; (A431, 0.25 µM) 76%; (A431, 1 µM) 92%.
“CTTTAAACTCAGGTGA (sugars kkddddkdkdkddddd, PS)”: under “A431, 2 µM”, the target mRNA inhibition is 89%.
Same read-out and setting: in the case of “CTTTATACCAGTGTCT (sugars kkkddddkdkdkdddd, PS)” it was 87%.
For the sequence “TAATTCTATTAGAGGG (sugars kkddddekekeddddd, PS)”, the target mRNA inhibition (A431, 2 µM) amounted to 46%.
In the case of TCAGATGGGTACTTCT (sugars k4 d9 k3, PS), the target mRNA inhibition runs as follows: (A431, 0.0625 µM) 38%; (A431, 0.25 µM) 66%; (A431, 1 µM) 83%.
In the case of “AGCTTTAAACTCAGGT (sugars k3 d4 k3 e1 d5, PS)”, where the note is “A431, 2 µM”, the target mRNA inhibition was 82%.
Consider GTAGAATGAGCAGGTC (sugars k4 d9 k3, PS), for which the target mRNA inhibition worked out at 84% (A431, 0.0625 µM); 97% (A431, 0.25 µM); 99% (A431, 1 µM).
Sequence “GTTTTGTAAGTGCAAC (sugars k2 d4 e3 k2 d5, PS)” displayed a target mRNA inhibition (A431, 2 µM) of 83%.
On the same count and under the same terms, then “TTCTATTAGAGGGCTA (sugars kddddkekekeddddd, PS)”, with 34%.
“CGCAATGCTGACTTGG (sugars kkddddekekeddddd, PS)”: the target mRNA inhibition was determined as 22% (A431, 0.0156 µM); 48% (A431, 0.0625 µM); 80% (A431, 0.25 µM); 93% (A431, 1 µM); 94% (A431, 2 µM).
Turning to TTTGTAAGTGCAACCA (sugars k4 d9 k3, PS), the target mRNA inhibition (A431, 0.04 µM) is 37% and 23%; the target mRNA inhibition (A431, 0.0625 µM) is 70%; the target mRNA inhibition (A431, 0.25 µM) is 91%; the target mRNA inhibition (A431, 1 µM) was 97% and 96% and 93%.
With “AAGTATTGCCAGCTAA (sugars kekddddeekkddddd, PS)”, the target mRNA inhibition (A431, 2 µM) amounted to 88%.
On to “CAGTTTTGTAAGTGCA (sugars kdddddkekekddddd, PS)”, for which the target mRNA inhibition was 0% (A431, 0.0156 µM); 52% (A431, 0.0625 µM); 79% (A431, 0.25 µM); 91% (A431, 1 µM); 92% (A431, 2 µM).
For the sequence “ATTCTCATGGTACAGG (sugars k3 d5 k3 d5, PS)”, the target mRNA inhibition (A431, 2 µM) turned out to be 97%.
Consider CACCCTCTTTATCCCC (sugars k4 d9 k3, PS), for which the target mRNA inhibition reads like this: (A431, 0.0625 µM) 47% and 62%; (A431, 0.25 µM) 76% and 82%; (A431, 1 µM) 90%.
Turning to “TTCTATTAGAGGGCTA (sugars kkddddkekekkdddd, PS)”, the target mRNA inhibition (A431, 2 µM) was 26%.
Consider “CGCAATGCTGACTTGG (sugars kkdddddkekeddddd, PS)”, for which the target mRNA inhibition reads like this: (A431, 0.0156 µM) 11%; (A431, 0.0625 µM) 44%; (A431, 0.25 µM) 80%; (A431, 1 µM) 93%; (A431, 2 µM) 96%.
The corresponding values for “TGTTATATTTGATCCT (sugars kekddddeekkddddd, PS)” are 31%, 40%, 70%, 89% and 94%.
Under “A431, 2 µM”, “CTTTATACCAGTGTCT (sugars kkddddkdkdkddddd, PS)” yielded a target mRNA inhibition of 92%.
Still for that read-out and setting: then “ACGCAATGCTGACTTG (sugars kkdddddkekeddddd, PS)”, with 89%; and “TTCAGAATTTCCACTA (sugars kkddddkekekkdddd, PS)”, with 58%.
For “AGTTTTGTAAGTGCAA (sugars kkddddekekeddddd, PS)”, the target mRNA inhibition worked out at 25% (A431, 0.0156 µM); 53% (A431, 0.0625 µM); 79% (A431, 0.25 µM); 91% (A431, 1 µM); 91% (A431, 2 µM).
The sequence “TCTATTAGAGGGCTAG (sugars kkddddkekekkdddd, PS)” displayed a target mRNA inhibition (A431, 2 µM) of 25%.
Same read-out and setting: then “GAAGATTGGCTCTGGC (sugars k3 d4 k3 e1 d5, PS)”, with 70%.
In the case of “AGCTTTAAACTCAGGT (sugars kkddddekekeddddd, PS)”, the target mRNA inhibition (A431, 2 µM) stood at 92%.
On the same count and under the same terms, then “TTATTCTCATGGTACA (sugars kkddddkekekddddd, PS)”, with 47%.
Turning to “TTATATTTGATCCTCA (sugars kkddddkdkdkddddd, PS)”, the target mRNA inhibition worked out at 15% (A431, 0.0156 µM); 44% (A431, 0.0625 µM); 76% (A431, 0.25 µM); 93% (A431, 1 µM); 96% (A431, 2 µM).
In turn, TCATCATAGATACTCC (sugars k4 d9 k3, PS) showed a target mRNA inhibition (A431, 0.0625 µM) of 33%; a target mRNA inhibition (A431, 0.25 µM) of 67%; a target mRNA inhibition (A431, 1 µM) of 84%.
“TTATATTTGATCCTCA (sugars kkddddekekeddddd, PS)” showed a target mRNA inhibition (A431, 2 µM) of 96%.
The sequence “GAAGATTGGCTCTGGC (sugars kkddddkekekkdddd, PS)” displayed a target mRNA inhibition (A431, 2 µM) of 10%.
Under “A431, 2 µM”, “CTGAAGATTGGCTCTG (sugars kkkddddkekekdddd, PS)” showed a target mRNA inhibition of 36%.
As for TTCAGAATTTCCACTA (sugars k4 d9 k3, PS), the target mRNA inhibition runs as follows: (A431, 0.0625 µM) 40%; (A431, 0.25 µM) 67%; (A431, 1 µM) 87%.
As for “GTGTATTTCTTGATGT (sugars k2 d4 e3 k2 d5, PS)”, the target mRNA inhibition runs as follows: (A431, 0.0156 µM) 18%; (A431, 0.0625 µM) 51%; (A431, 0.25 µM) 79%; (A431, 1 µM) 91%; (A431, 2 µM) 96%.
Sequence “TGTTATATTTGATCCT (sugars k2 d4 e3 k2 d5, PS)” came in with a target mRNA inhibition (A431, 2 µM) of 87%.
For the setting “A431, 2 µM”, “CGCAATGCTGACTTGG (sugars kkddddkekekkdddd, PS)” gave a target mRNA inhibition of 60%.
TCATAGATACTCCTCA (sugars k3 d10 k3, PS): the target mRNA inhibition came to 8% (A431, 0.0156 µM); 17% (A431, 0.0625 µM); 51% (A431, 0.25 µM); 80% (A431, 1 µM).
In the case of AACTTTACCTCACCCT (sugars k4 d9 k3, PS), the target mRNA inhibition was 35% (A431, 0.0625 µM); 68% (A431, 0.25 µM); 88% (A431, 1 µM).
The sequence “TATATTTGATCCTCAA (sugars kddddkekekeddddd, PS)” had a target mRNA inhibition (A431, 2 µM) of 75%.
